The values that follow come from article PMC4695185, “Semi-synthetic ocotillol analogues as selective ABCB1-mediated drug resistance reversal agents” (Oncotarget, 2015).

Data set [1] concerns the target T1, ABCB1 (Homo sapiens, UniProt P08183). Put plainly: cell-based. The settings on record: read-out: vanadate-sensitive ATPase stimulation in crude membranes (weak: maximal 1.78-fol). Details: crude membranes of High-five cells expressing ABCB1.
In a further data set the test system is HEK293. As to the kind of experiment: cells. Details: species or system HEK293 and transfected HEK293; MTT cytotoxicity, absorbance 570 nm, 72 h. Particulars: Homo sapiens, HEK293, 72 h, drug alone. The procedure: (§1) The MTT colorimetric assay was used to detect the sensitivity of the cells against anticancer drugs. Cells (5 × 10^3/well) were seeded evenly into (160 μl/well) 96-well plates and cultured overnight. For the reversal experiments, ORA, OSA, and parallel control modulators (20 μl/well) were added 1 h prior. Different concentrations of the chemotherapeutic drugs (20 μl/well) were then added into the designated wells. After 72 h of incubation, 20 μl of MTT solution (4 mg/ml) was added to each well, and the plate was further incubated for 4 h. Subsequently, the medium was discarded, and 100 μl of dimethylsulfoxide (DMSO) was added into each well to dissolve the formazan crystals. The absorbance was determined at 570 nm by the OPSYS microplate reader (DYNEX Technology, Inc., Chantilly, VA). The IC50 value was calculated from the survival curves using the modified Bliss method. Verapamil was used at a nontoxic concentration of 3 μM as a positive control for ABCB1 overexpressing cell lines. FTC at 3 μM and PAK-104P at 10 μM were used as positive control for ABCG2 and ABCC1 overexpressing cell lines, respectively.

The next data set has as its system T2, HEK/ABCG2.
T2 construct: HEK293 transfected with ABCG2 (wild type)
As to the kind of experiment: cells. The settings on record: Homo sapiens, HEK293, 72 h; drug alone; read-out: IC50 HEK/ABCG2 (mitoxantrone). Details: species or system HEK293 and transfected HEK293; MTT cytotoxicity, absorbance 570 nm, 72 h. On the procedure: as §1

The target of data set [2] is T1, ABCB1.
The next data set has as its system T3, HEK/ABCB1.
T3 construct: HEK293 transfected with ABCB1
Put plainly: cells. Further details: species or system HEK293 and transfected HEK293; MTT cytotoxicity, absorbance 570 nm, 72 h. The settings on record: Homo sapiens, HEK293, 72 h; drug alone; read-out: IC50 HEK/ABCB1 (paclitaxel). The procedure: as §1

Data set [3] addresses T1, ABCB1. Put plainly: biochemical. Further details: full length ABCB1 (HEK/ABCB1); crude membranes of High-five cells expressing ABCB1.

Read-outs that look alike come from different tables or passages of the source.

T1 sequence (P08183 whole entry): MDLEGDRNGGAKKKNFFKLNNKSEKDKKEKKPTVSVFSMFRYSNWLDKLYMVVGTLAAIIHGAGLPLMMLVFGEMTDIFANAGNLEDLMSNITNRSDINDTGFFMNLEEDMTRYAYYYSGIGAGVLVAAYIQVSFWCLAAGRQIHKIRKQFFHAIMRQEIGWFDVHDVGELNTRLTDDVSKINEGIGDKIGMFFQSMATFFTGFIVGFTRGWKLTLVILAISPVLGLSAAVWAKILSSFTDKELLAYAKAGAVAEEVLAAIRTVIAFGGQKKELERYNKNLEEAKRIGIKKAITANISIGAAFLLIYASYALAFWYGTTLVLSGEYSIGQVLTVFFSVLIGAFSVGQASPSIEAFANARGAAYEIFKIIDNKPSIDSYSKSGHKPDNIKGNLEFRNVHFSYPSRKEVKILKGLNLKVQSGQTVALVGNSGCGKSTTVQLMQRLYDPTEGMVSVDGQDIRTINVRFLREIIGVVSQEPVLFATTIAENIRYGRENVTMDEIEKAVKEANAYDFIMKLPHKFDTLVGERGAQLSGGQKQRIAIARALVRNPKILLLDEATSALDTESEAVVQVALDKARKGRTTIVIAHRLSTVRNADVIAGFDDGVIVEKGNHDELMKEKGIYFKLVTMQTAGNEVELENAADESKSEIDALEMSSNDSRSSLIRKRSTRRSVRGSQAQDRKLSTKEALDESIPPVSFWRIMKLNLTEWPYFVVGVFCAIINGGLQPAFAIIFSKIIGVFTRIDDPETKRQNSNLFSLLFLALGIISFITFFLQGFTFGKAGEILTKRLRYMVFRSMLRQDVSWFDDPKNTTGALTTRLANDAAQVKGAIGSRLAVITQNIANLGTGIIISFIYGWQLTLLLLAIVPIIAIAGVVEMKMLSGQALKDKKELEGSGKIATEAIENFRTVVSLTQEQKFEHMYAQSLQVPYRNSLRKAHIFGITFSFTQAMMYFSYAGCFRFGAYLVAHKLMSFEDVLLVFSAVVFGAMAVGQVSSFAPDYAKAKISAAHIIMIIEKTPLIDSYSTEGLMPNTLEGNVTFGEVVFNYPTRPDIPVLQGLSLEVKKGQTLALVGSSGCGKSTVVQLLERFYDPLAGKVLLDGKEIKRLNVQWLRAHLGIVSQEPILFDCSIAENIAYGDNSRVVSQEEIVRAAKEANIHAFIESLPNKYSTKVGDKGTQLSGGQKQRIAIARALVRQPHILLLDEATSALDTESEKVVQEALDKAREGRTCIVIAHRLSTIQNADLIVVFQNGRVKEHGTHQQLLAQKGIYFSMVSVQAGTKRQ

For the molecule `CC(C)(O)[C@@H]1CC[C@@](C)([C@H]2CC[C@]3(C)[C@@H]2[C@H](O)C[C@@H]2[C@@]4(C)CC[C@H](N)C(C)(C)[C@@H]4CC[C@]23C)O1` [OSA, (20S, 24R/S)-epoxy-12β, 25-dihydroxy-dommarane-3β-amine], the maximal fold induction on ABCB1 [1] was 1.78.
Regarding `O=C1c2c(O)ccc(O)c2C(=O)c2c(NCCNCCO)ccc(NCCNCCO)c21` [Mitoxantrone], the figures for the IC50 in the data set with HEK293 (read-out: IC50 HEK293 (mitoxantrone)) and in the data set with HEK/ABCG2 were 40 nM and 920 nM, respectively.
On to `CC(=O)O[C@H]1C(=O)[C@@]2(C)[C@H]([C@H](OC(=O)c3ccccc3)[C@]3(O)C[C@H](OC(=O)[C@H](O)[C@@H](NC(=O)c4ccccc4)c4ccccc4)C(C)=C1C3(C)C)[C@]1(OC(C)=O)CO[C@@H]1C[C@@H]2O` [paclitaxel], for which the “radiolabelled efflux and accumulation in ABCB1-overexpressing versus parental ce” value at ABCB1 [2] was “decreased much faster over time than those in the parental cells, suggesting an active process of drug efflux mediated by ABCB1”. In addition, the IC50 in the data set with HEK293 (read-out: IC50 HEK293 (paclitaxel)) is 180 nM; in the data set on HEK/ABCB1, 8200 nM.
Turning to `CC(C)(O)[C@H]1CC[C@@](C)([C@H]2CC[C@]3(C)[C@@H]2[C@H](O)C[C@@H]2[C@@]4(C)CC[C@H](N)C(C)(C)[C@@H]4CC[C@]23C)O1` [ORA, (20S, 24R/S)-epoxy-12β, 25-dihydroxy-dommarane-3β-amine], the 50% effective concentration (EC50) (in general, the concentration that produces a half-maximal response) on ABCB1 [3] amounted to 2080 nM.
